Results reported in PubChem BioAssay (NCI).
“And” between values parts separate entries of the source, which are not always exact repeats. Identical values can stand only once.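 Cultured in 96-well plates, cells were exposed to test compound for 48 hours across five concentrations. GI50 marks 50% less growth. TGI is the concentration that stops growth completely.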

How the values were obtained:
Assay in all cases: NCI tumour cell line growth inhibition, 48 h
CCRF-CEM leukemia = test system: CCRF-CEM leukemia
EKVX NSCLC = test system: EKVX NSCLC
HCT-116 colon = test system: HCT-116 colon
HS 578T breast = test system: HS 578T breast
MDA-MB-435 = test system: MDA-MB-435
NCI/ADR-RES ovarian = test system: NCI/ADR-RES ovarian
OVCAR-5 ovarian = test system: OVCAR-5 ovarian
OVCAR-8 ovarian = test system: OVCAR-8 ovarian
TK-10 renal = test system: TK-10 renal
SNB-75 CNS = test system: SNB-75 CNS

Compound	TGI (CCRF-CEM leukemia)	TGI (EKVX NSCLC)	TGI (HCT-116 colon)	TGI (HS 578T breast)	TGI (MDA-MB-435)	TGI (NCI/ADR-RES ovarian)	TGI (OVCAR-5 ovarian)	TGI (OVCAR-8 ovarian)	TGI (TK-10 renal)	GI50 (CCRF-CEM leukemia)	GI50 (EKVX NSCLC)	GI50 (HCT-116 colon)	GI50 (HS 578T breast)	GI50 (MDA-MB-435)	GI50 (NCI/ADR-RES ovarian)	GI50 (OVCAR-5 ovarian)	GI50 (OVCAR-8 ovarian)	GI50 (SNB-75 CNS)	TGI (SNB-75 CNS)	GI50 (TK-10 renal)
O=C(c1ccco1)N(C(=S)OCc1ccccn1)c1ccccc1	> 100 µM	> 100 µM	> 100 µM	> 100 µM	> 100 µM	> 100 µM	> 100 µM	> 100 µM	> 100 µM	–	–	–	–	–	–	–	–	–	–	–
COc1cccc(-c2nc3sccn3c2-c2ccnc(NCCNC(=O)Nc3cccc(C(F)(F)F)c3)n2)c1	> 100 µM	59.6 µM	11.6 µM	29 µM	12.3 µM	> 100 µM	52.2 µM	9.79 µM	18.8 µM	3.43 µM	3.55 µM	3.45 µM	3.15 µM	2.95 µM	3.45 µM	6.37 µM	3.28 µM	3.41 µM	21.7 µM	3.6 µM
CC[N+](CC)=c1ccc2nc3c(cc(N)c4ccccc43)oc-2c1	–	–	–	–	–	–	0.495 µM	3.43 µM	1.14 µM	0.183 µM	–	–	–	–	–	0.24 µM	1.07 µM	0.61 µM	1.88 µM	0.489 µM
CCOC(=O)C(O)(NC(C)=O)C(F)(F)F (stereo unspecified)	> 100 µM	> 100 µM	> 100 µM	> 100 µM	> 100 µM	> 100 µM	> 100 µM	> 100 µM	> 100 µM	–	–	–	–	–	–	–	–	–	> 100 µM	–
COc1cc(C2C3=C(COC3=O)OC(C)(C)Oc3cc4c(cc32)OCO4)cc(OC)c1OC (stereo unspecified)	–	> 100 µM	6.65 µM	> 100 µM	0.5 µM	–	> 100 µM	> 100 µM	> 100 µM	–	–	–	–	–	–	–	–	–	–	–
COC(=O)c1cncc2c1CC1C3(C(=O)OC)C=NC(C4C(CO)=CCC43)C21C (stereo unspecified)	> 100 µM	> 100 µM	> 100 µM	> 100 µM	> 100 µM	> 100 µM	> 100 µM	> 100 µM	> 100 µM	–	–	–	–	–	–	–	–	–	> 100 µM	–
N#Cc1c2c(c(N3CCOCC3)n3c1nc1ccccc13)CCCC2	8.48 µM	35.9 µM	31.7 µM	> 100 µM	39.7 µM	43.2 µM	41.8 µM	43.4 µM	49.3 µM	–	–	–	–	–	–	–	–	–	–	–
Cc1cc(S(=O)(=O)Nc2nnc3cc(C(F)(F)F)cc(C)n23)c(S)cc1Cl	> 100 µM	> 100 µM	> 100 µM	> 100 µM	> 100 µM	> 100 µM	> 100 µM	> 100 µM	> 100 µM	–	–	–	–	–	–	–	–	–	> 100 µM	–
CCCCN(c1ccccc1)c1ncnc2c1cnn2C	49.6 µM	> 100 µM	> 100 µM	76.4 µM	> 100 µM	72.7 µM	> 100 µM	> 100 µM	> 100 µM	–	–	–	–	–	–	–	–	–	55.9 µM	–
O=C(O)c1ccc(Nc2nc3cc(C(F)(F)F)ccc3nc2C(=O)O)cc1	–	> 100 µM	> 100 µM	> 100 µM	> 100 µM	> 100 µM	> 100 µM	> 100 µM	–	–	–	–	–	–	–	–	–	–	> 100 µM	–
Cc1ccc2c(c1)OC1Nc3ccccc3C1=C2O (stereo unspecified)	–	86.9 µM	65.1 µM	> 100 µM	95.9 µM	86.3 µM	> 100 µM	> 100 µM	78.3 µM	–	–	–	–	–	–	–	–	–	> 100 µM	–
COS(=O)c1cc(Cl)cc(Cl)c1O (stereo unspecified)	> 100 µM	> 100 µM	> 100 µM	–	–	–	> 100 µM	–	> 100 µM	–	–	–	–	–	–	–	–	–	> 100 µM	–
O=C1C=CC(=O)c2ncccc21	3.29 µM	9.86 µM	4.27 µM	56.4 µM	18.5 µM	36.1 µM	32.2 µM	26.5 µM	17.4 µM	–	–	–	–	–	–	–	–	–	17.2 µM	–
COC(=O)[C@@H]1N2C(=S)N(c3ccccc3)C(=O)[C@H]2SC1(C)C	–	> 100 µM	> 100 µM	–	> 100 µM	> 100 µM	> 100 µM	> 100 µM	> 100 µM	–	–	–	–	–	–	–	–	–	> 100 µM	–
C=C1C[C@]23C[C@@]1(O)CC[C@H]2[C@@]12C=C[C@H](O)[C@@](C)(C(=O)O1)[C@H]2[C@@H]3C(=O)O	> 100 µM	> 100 µM	> 100 µM	–	–	–	> 100 µM	–	> 100 µM	–	–	–	–	–	–	–	–	–	> 100 µM	–
Nc1nc2c(ncn2C2C=CC(CO)O2)c(=O)[nH]1 (stereo unspecified)	> 100 µM	–	> 100 µM	> 100 µM	> 100 µM	> 100 µM	> 100 µM	> 100 µM	> 100 µM	–	–	–	–	–	–	–	–	–	> 100 µM	–
CSC1SCC2C(=O)N(C)C3(CC3C)C(=O)OCC(NC(=O)c3nc4ccccc4cc3O)C(=O)NC(C)C(=O)N(C)C1C(=O)N(C)C1(CC1C)C(=O)OCC(NC(=O)c1nc3ccccc3cc1O)C(=O)NC(C)C(=O)N2C (stereo unspecified)	< 0.0001 µM	0.648 µM and 0.0992 µM	16.4 µM	< 0.0001 µM	< 0.0001 µM	72.7 µM	–	–	0.000416 µM	–	–	–	–	–	0.124 µM	–	–	–	< 0.0001 µM	–
Cc1ccc(S(=O)(=O)N2CCN(CCN(C)CCN3CCN(S(=O)(=O)c4ccc(C)cc4)CC3)CC2)cc1	44.2 µM	55.2 µM	35 µM	42.2 µM	32 µM	43.1 µM	80.8 µM	32.7 µM	30.2 µM	–	–	–	–	–	–	–	–	–	–	–
CCOC(=O)c1sc2c(c1OC(=O)c1ccccc1)c(=O)n(-c1ccccc1)c(=S)n2-c1ccccc1	> 100 µM	> 100 µM	74.8 µM	75.6 µM	51.7 µM	51 µM	> 100 µM	> 100 µM	> 100 µM	–	–	–	–	–	–	–	–	–	–	–
COc1cc(/C=C2/SC(c3ccccc3)N(c3cccc([N+](=O)[O-])c3)C2=O)cc(OC)c1OC (stereo unspecified)	> 100 µM	> 100 µM	> 100 µM	> 100 µM	86.4 µM	> 100 µM	> 100 µM	> 100 µM	> 100 µM	–	–	–	–	–	–	–	–	–	–	–
